# Entries after “also recorded” stand apart in the source; their conditions may differ. No end group written: not given here.
# How the values were obtained:
# [1] = test system: DMC1; conditions: ref [21],[27],[32]; cited from earlier work
# Text: The PhePP-binding site of DMC1 is formed by two loops, corresponding to amino-acids 147-153 and 178-183, respectively. The first loop consists of amino-acids 147-GAGGYPG-153 in DMC1 and 148-IDRGGGE-154 in RAD51 (herein referred to as PhePP-binding loop A; Fig. 1d), and is one of the most divergent regions between DMC1 and RAD51 (Supplementary Fig. 4). The second loop consists of amino-acids 178-NVDHDA-183 in DMC1 and 179-GLSGSD-184 in RAD51 (herein referred to as PhePP-binding loop B; Fig. 1e), in which residues V179 (DMC1) and L180 (RAD51) substantially contribute to the PhePP-binding pocket. ...
# [2] = test system: DMC1 ΔN V179E; test: Amylose pull-down of His-DMC1 ΔN V179E with MBP-BRCA2 fusions; type: binding, human; conditions: lysates mixed; MBP-BRCA2 fusion; 20 mM Tris pH 8.0, 500 mM KCl, 2 mM DTT
# Protocol: For affinity experiments involving DMC1 ΔN V179E and F85E, MBP-fusions of BRCA2 fragments (Ex14, amino-acids 2387-2420, Ex14-Tr, amino acids 2401-2414, BRC4, amino acids 1519-1551) were cloned into pMAT11 vectors and DMC1 ΔN mutants (V179E or F85E) were cloned into pHAT4 vectors. Lysates of bacterial cultures expressing His6-DMC1 mutants or MBP-BRCA2 constructs were mixed, and complexes were purified through amylose affinity chromatography in 20 mM Tris pH 8.0, 500 mM KCl, 2 mM DTT and eluted using 30 mM D-maltose.
# [3] = test system: DMC1-ssDNA filaments; test: EMSA, protection of DMC1-ssDNA filaments from BRC4-mediated disruption; type: biochemical, human; conditions: 10-fold excess of BRC4
# Protocol: Finally, we tested whether binding of BRCA2 Ex14 protects DMC1-ssDNA nucleoprotein filaments from BRC4-mediated disruption (Fig. 3c). […] Further, whilst the core PhePP interaction site is sufficient to stimulate DMC1-ssDNA nucleoprotein filament formation, surrounding amino-acids that are present within Ex14 (but not Ex14-Tr) are necessary to super-shift filaments and confer protection from BRC4-mediated disruption.
# (§1) To form nucleoprotein filaments, DMC1 and RAD51 was incubated with fluorescent 100-base ssDNA (5’-FAM- […]-3’) at the concentrations indicated in the figures for 30 minutes at 4 °C in reaction buffer. For DMC1, reaction buffer is 25 mM TEA (triethanolamine) pH 7.5, 1 mM ATP, 2 mM MgCl2, 0.1 mg/ml BSA, 2 mM DTT, 200 mM KCl. For RAD51, reaction buffer is 50 mM TEA (triethanolamine), 2 mM ATP, 0.5 mM MgCl2, 2 mM DTT. For assays requiring incomplete nucleoprotein filament assembly, the reaction buffer consisted of 50 mM TAE (tris, acetate, EDTA) pH 7.5, 2 mM ATP, 2 mM MgCl2, 2 mM DTT. In nucleoprotein formation stimulation assays or supershift experiments, BRCA2Ex14 or BRCA2Ex14-AAA were added for a further 30 min at 4 °C. […] Glycerol was added at a final concentration of 3%, and samples were analysed by electrophoresis on a 1% (w/v) (for DMC1) or 0.66% (w/v) (for RAD51) agarose gel in 0.5x TAE pH 8.0 at 20–40 V for ~4 h at 4 °C. DNA was detected by FAM using a Typhoon^TM FLA 9500 (GE Healthcare), with 473 nm laser at excitation wavelength 490 nm and emission wavelength 520 nm, using the LPB filter and a PMT voltage of 500 V. To analyse RAD51 nucleoprotein filaments assembled upon 100-base poly(dT) ssDNA, gels were stained post-run using SYBR^TM Gold Nucleic Acid Gel Stain (Invitrogen) and detected using a Typhoon^TM FLA 9500 (GE Healthcare).
# [4] = test system: DMC1-ssDNA filaments; test: EMSA, stimulation of DMC1-ssDNA filament formation (TAE pH 7.5); type: biochemical, human; conditions: TAE pH 7.5
# Text: What is the function of the BRCA2 Ex14-DMC1 interaction? We used electrophoretic mobility shift assays (EMSAs) to determine the impact of BRCA2-binding on DMC1 nucleoprotein filaments. We used two different conditions for nucleoprotein filament assembly. Firstly, a TAE (tris, acetate, EDTA; pH 7.5) buffer that was previously used for RAD51-ssDNA filaments, in which DMC1-ssDNA filaments were partially formed at the canonical ratio of three nucleotides to one protomer (Fig. 3a). Secondly, a TEA (triethanolamine; pH 7.5) + KCl buffer based on previous DMC1 studies[36]–[38], in which DMC1-ssDNA filament formation was more complete at the canonical ratio (Fig. 3b). […] This was noticeable using Ex14 in equimolar amounts (11 μM), and became substantial at a 5-fold stoichiometric excess (55 μM) (Fig. 3b). As the KD of the DMC1-Ex14 interaction is approximately 30 μM (Fig. 2a), the requirement for a stoichiometric excess is likely due to binding being favoured at Ex14 concentrations above the KD.
# as §1
# [5] = test system: RAD51-ssDNA filaments; conditions: ref [33],[34]; cited from earlier work
# Text: BRCA2 interacts with RAD51 and DMC1 recombinases through BRC repeats and PhePP motifs (Fig. 1a)[21],[25]–[28]. The eight BRC repeats, located within BRCA2’s central exon 11 region, bind to RAD51 and DMC1 with various affinities[25],[29],[30].
# [6] = test system: RAD51; conditions: cited from earlier work
# Text: BRCA2 interacts with RAD51 and DMC1 recombinases through BRC repeats and PhePP motifs (Fig. 1a)[21],[25]–[28]. The eight BRC repeats, located within BRCA2’s central exon 11 region, bind to RAD51 and DMC1 with various affinities[25],[29],[30]. […] The first loop consists of amino-acids 147-GAGGYPG-153 in DMC1 and 148-IDRGGGE-154 in RAD51 (herein referred to as PhePP-binding loop A; Fig. 1d), and is one of the most divergent regions between DMC1 and RAD51 (Supplementary Fig. 4). The second loop consists of amino-acids 178-NVDHDA-183 in DMC1 and 179-GLSGSD-184 in RAD51 (herein referred to as PhePP-binding loop B; Fig. 1e), in which residues V179 (DMC1) and L180 (RAD51) substantially contribute to the PhePP-binding pocket. ...
Substance,selective binding to DMC1 [1],binding in pull-down [2],protection of DMC1-ssDNA filaments from BRC4-mediated disruption ([3]; 5-fold excess (55 μM) peptide),"protection of DMC1-ssDNA filaments from BRC4-mediated disruption ([3]; TEA pH 7.5 + KCl, Ex14 10-fold stoichiometric excess (110 μM))",protection of DMC1-ssDNA filaments from BRC4-mediated disruption ([3]; equimolar (11 μM) peptide),"stimulation of DMC1-ssDNA filament formation upon changing order of addition ([4]; Ex14 added after DMC1-ssDNA, with DMC1 prior to ssDNA, or with ssDNA prior to DMC1)","stimulation of DMC1-ssDNA nucleoprotein filament formation ([4]; 100-nt random ssDNA, 4 °C, canonical ratio of three nucleotides to one protomer, equimolar for Ex14)",protection of nucleoprotein filaments from BRC-mediated disruption [5],"selective binding to RAD51 ([6]; ref [21],[27],[32])","binding to RAD51 filaments versus monomers ([6]; ref [33],[34])"
ATRNEKMRHLITTGRPTKVFVPPFKTKSHFHRVE [Ex14],bind selectively to DMC1,failed to interact; also recorded: blocked its ability to bind Ex14,complete protection,protected against BRC4-mediated disruption; also recorded: protected filaments from disruption,some protection,same degree; also recorded: same stimulation; also recorded: order of addition did not affect,"stimulates DMC1-ssDNA nucleoprotein filament assembly, achieving complete DMC1-ssDNA filament formation; also recorded: promoted the formation of DMC1-ssDNA filaments",,,
"Ex27: BRCA2 exon 27 PhePP peptide, amino acids 3270-3315 (ALDFLSRLPLPPPVSPICTFVSPAAQKAFQPPRSCGTKYETPIKKK; UniProt P51587 3270-3315, looked up, fragment)",,,,,,,,protects nucleoprotein filaments from BRC-mediated disruption,"bind selectively to DMC1 and RAD51, respectively","binds to RAD51 filaments, rather than monomers"

# From paper PMC11436757, “BRCA2 stabilises RAD51 and DMC1 nucleoprotein filaments through a conserved interaction mode” (Nature Communications, 2024)
